Patent US20260096556A1, “AGRICULTURAL METHODS” (priority 2022, published 2026)

Test system: Phakopsora pachyrhizi
Experiment: Field trials: foliar spray on soybean plants, severity of infection from Phakopsora pachyrhizi
Assay type: in vivo
Conditions: for % control (% reduction of the area under the disease pressure curve): Brazil, soybean, 3 foliar applications, 75 g ai/ha
Experimental: Various compounds were formulated (a commercial EC250 formulation for prothioconazole, an SC100 formulation for compound X.04), diluted into a spray solution including an adjuvant, and applied to soybean plants in a foliar broadcast spray using a handheld horizontal boom sprayer. Three applications were made over the course of the growing season, starting approximately 45 days after crop emergence, with following applications at approximately 14 day intervals. Trials were conducted across five locations in Brazil.
Assessments of severity of infection from Phakopsora pachyrhizi were made at approximately weekly intervals, based on the percentage of leaf area covered by disease lesions. This is expressed in {Table B1} as a final % severity. The performance of the treatments were calculated as % reduction of the area under the disease pressure curve for the treated plots in the trial, based on assessments up to 28 days after the third application. Samples were taken from diseased leaves in the untreated plots and evaluated for the % population frequency of the F129L mutation that generates resistance to strobilurin fungicides.
Samples of leaves were taken from the untreated plots and DNA extracted from disease lesions. qPCR analysis was conducted to determine the frequency of F129L within the sampled pathogen population.

[1] = Trial A, F129L frequency in untreated 94.33%, untreated severity 97.50%
[2] = Trial B, F129L frequency in untreated 93.67%, untreated severity 83.10%
[3] = Trial C, F129L frequency in untreated 93.00%, untreated severity 96.80%
[4] = Trial D, F129L frequency in untreated 22.00%, untreated severity 74.2%
[5] = Trial E, F129L frequency in untreated 44.67%, untreated severity 95.00%

## OC(Cc1ccccc1Cl)(Cn1nc[nH]c1=S)C1(Cl)CC1 (centres unmarked) [prothioconazole, reference compound]
[1]
  % control (% reduction of the area under the disease pressure curve): 72.66%
[2]
  % control (% reduction of the area under the disease pressure curve): 28.86%
[3]
  % control (% reduction of the area under the disease pressure curve): 63.89%
[4]
  % control (% reduction of the area under the disease pressure curve): 72.53%
[5]
  % control (% reduction of the area under the disease pressure curve): 67.30%

## CO/C=C(\Oc1cc(C2CCCCC2)ccc1C)C(=O)OC [compound X.04, methyl (Z)-2-(5-cyclohexyl-2-methyl-phenoxy)-3-methoxy-prop-2-enoate]
[1]
  % control (% reduction of the area under the disease pressure curve): 91.00%
[2]
  % control (% reduction of the area under the disease pressure curve): 45.50%
[3]
  % control (% reduction of the area under the disease pressure curve): 95.46%
[4]
  % control (% reduction of the area under the disease pressure curve): 71.39%
[5]
  % control (% reduction of the area under the disease pressure curve): 63.48%
Trials with a high (>90%) frequency of F129L in the untreated population
  performance compared to prothioconazole and to a commercial standard containing prothioconazole and a standard strobilurin fungicide: superior
